From patent publication US10052306B2 (LUC THERAPEUTICS, INC., priority 2013, dated 2018)

Target: NR1/NR2B (Homo sapiens (Human), UniProt Q05586+Q13224)
Test: Cell assay: FDSS Ca2+ influx inhibition in HEK293 cells expressing NR1/NR2B;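 note: Fluo-8 Ca2+ signal read on Hamamatsu FDSS 6000 after glutamate, glycine and Ca2+ challenge following 10 min compound preincubation, end/baseline fluorescence ratio compared with MK801 control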
Conditions: Ca2+ influx
[1] = Binned Activity, HEK293 cells expressing NR1/NR2B, binned NR2B NAM IC50
[2] = NR2B NAM IC50, HEK293 cells expressing NR1/NR2B

NR1/NR2B, sequence (Q13224 27-1484, other chains not shown): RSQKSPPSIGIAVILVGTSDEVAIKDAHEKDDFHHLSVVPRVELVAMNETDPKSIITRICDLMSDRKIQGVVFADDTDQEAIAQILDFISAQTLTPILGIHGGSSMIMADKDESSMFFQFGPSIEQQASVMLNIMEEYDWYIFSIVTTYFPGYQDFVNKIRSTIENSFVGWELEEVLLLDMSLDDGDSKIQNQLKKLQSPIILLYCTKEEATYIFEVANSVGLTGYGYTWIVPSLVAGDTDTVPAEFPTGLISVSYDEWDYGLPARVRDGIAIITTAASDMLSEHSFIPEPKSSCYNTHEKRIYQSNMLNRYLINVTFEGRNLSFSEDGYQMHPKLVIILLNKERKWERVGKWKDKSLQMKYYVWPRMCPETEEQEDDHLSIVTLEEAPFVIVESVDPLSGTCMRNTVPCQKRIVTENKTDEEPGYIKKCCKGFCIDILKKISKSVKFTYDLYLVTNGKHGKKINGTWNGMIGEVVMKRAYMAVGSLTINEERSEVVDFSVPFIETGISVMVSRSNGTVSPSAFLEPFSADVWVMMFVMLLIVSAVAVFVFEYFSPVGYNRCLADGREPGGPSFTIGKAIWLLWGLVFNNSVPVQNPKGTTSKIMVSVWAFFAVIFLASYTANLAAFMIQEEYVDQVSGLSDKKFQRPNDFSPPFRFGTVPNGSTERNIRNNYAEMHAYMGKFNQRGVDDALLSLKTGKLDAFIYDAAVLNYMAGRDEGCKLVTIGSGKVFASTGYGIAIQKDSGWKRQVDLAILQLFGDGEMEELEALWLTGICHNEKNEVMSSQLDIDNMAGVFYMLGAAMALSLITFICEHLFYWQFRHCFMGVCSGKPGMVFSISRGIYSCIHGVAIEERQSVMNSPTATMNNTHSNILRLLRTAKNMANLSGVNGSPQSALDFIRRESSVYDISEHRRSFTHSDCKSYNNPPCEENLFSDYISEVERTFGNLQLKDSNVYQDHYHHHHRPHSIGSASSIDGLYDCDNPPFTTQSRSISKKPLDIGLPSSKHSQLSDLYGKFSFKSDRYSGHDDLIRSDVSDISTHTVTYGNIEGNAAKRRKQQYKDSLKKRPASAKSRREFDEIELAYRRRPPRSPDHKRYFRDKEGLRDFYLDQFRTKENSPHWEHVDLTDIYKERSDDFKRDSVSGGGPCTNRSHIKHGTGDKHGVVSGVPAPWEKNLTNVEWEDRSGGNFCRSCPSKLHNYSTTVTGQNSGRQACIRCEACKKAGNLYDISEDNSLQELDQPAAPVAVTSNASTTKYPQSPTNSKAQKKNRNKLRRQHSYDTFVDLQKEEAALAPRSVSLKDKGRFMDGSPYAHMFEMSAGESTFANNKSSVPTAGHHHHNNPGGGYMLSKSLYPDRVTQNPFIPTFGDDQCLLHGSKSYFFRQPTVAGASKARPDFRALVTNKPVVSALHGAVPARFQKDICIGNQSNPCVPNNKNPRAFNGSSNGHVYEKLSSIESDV

IC50 [1] [nM] | IC50 [2] [nM] | Structure (SMILES)
– | 114 | CS(=O)(=O)Nc1ccc(C(O)CN2C[C@@H]3C[C@@](O)(Cc4ccccc4)C[C@@H]3C2)nc1 (mixture of isomers) [Example 236, rac-N-(6-(2-((3aR,5r,6aS)-5-benzyl-5-hydroxyhexahydrocyclo-penta[c]pyrrol-2(1H)-yl)-1-hydroxyethyl)pyridin-3-yl)methanesulfonamide]
< 100 | 36.4 | Oc1ccc(C(O)CN2C[C@@H]3C[C@](F)(Cc4ccccc4)C[C@@H]3C2)cc1F (mixture of isomers) [Example 316, rac-4-(2-((3aR,5s,6aS)-5-benzyl-5-fluoro-hexahydrocyclopen-ta[c]pyrrol-2(1H)-yl)-1-hydroxyethyl)-2-fluorophenol]
– | 12.2 | Oc1ccc(C(O)CN2C[C@H]3C[C@@H](Cc4ccccc4)C[C@H]3C2)cc1F (mixture of isomers) [Example 301, rac-4-{2-[(3aR,5S,6aS)-5-benzyl-octahydrocyclopenta[c]pyrrol-2-yl]-1-hydroxyethyl}-2-fluorophenol]
– | 410 | Oc1ccc(C(O)CN2C[C@@H]3C[C@@](O)(CC4CCCCC4)C[C@@H]3C2)cc1 (mixture of isomers) [Example 209, rac-(3aR,5R,6aS)-5-(cyclohexylmethyl)-2-[2-hydroxy-2-(4-hydroxyphenyl)ethyl]-octahydrocyclopenta[c] pyrrol-5-ol]
< 100 | 26.9 | Oc1ccc(C(O)CN2C[C@@H]3C[C@@](F)(Cc4ccccc4)C[C@@H]3C2)cc1 (mixture of isomers) [Example 313, rac-4-(2-((3aR,5r,6aS)-5-benzyl-5-fluoro-hexahydrocyclopen-ta[c]pyrrol-2(1H)-yl)-1-hydroxyethyl)phenol]
– | 669 | Oc1ccc(C(O)CN2C[C@@H]3C[C@@](O)(Cc4ccccn4)C[C@@H]3C2)cc1 (mixture of isomers) [Example 232, rac-(3aR,5r,6aS)-2-(2-hydroxy-2-(4-hydroxyphenyl)ethyl)-5-(pyridin-2-ylmethyl)octahydrocyclo-penta[c]pyrrol-5-ol]
– | 47.6 | Oc1ccc(C(O)CN2C[C@@H]3C[C@@](O)(Cc4cccc(F)c4F)C[C@@H]3C2)nc1 (mixture of isomers) [Example 248, rac-(3aR,5r,6aS)-5-(2,3-difluorobenzyl)-2-(2-hydroxy-2-(5-hydroxypyridin-2-yl)ethyl)octahydrocyclo-penta[c]pyrrol-5-ol]
> 10000 | ≥ 10000 | Oc1ccc(C(O)CN2C[C@@H]3C[C@@](O)(CC4CC4)C[C@@H]3C2)cc1 (mixture of isomers) [Example 211, rac-(3aR,5r,6aS)-5-(cyclopropylmethyl)-2-(2-hydroxy-2-(4-hydroxyphenyl)ethyl) octahydrocyclopenta [c]pyrrol-5-ol]
< 100 | 13.9 | Oc1ccc(C(O)CN2C[C@H]3CC(Cc4ccccc4)C[C@H]3C2)cc1 (mixture of isomers) [Example 300, rac-4-(2-((3aR,6aS)-5-benzylhexahydrocyclo-penta[c]pyrrol-2(1H)-yl)-1-hydroxyethyl) phenol]
< 100 | 15.5 | Oc1ccc(C(O)CN2C[C@@H]3C[C@@](O)(Cc4ccccc4F)C[C@@H]3C2)cc1 (mixture of isomers) [Example 229, rac-(3aR,5r,6aS)-5-(2-fluorobenzyl)-2-(2-hydroxy-2-(4-hy-droxyphenyl)ethyl)octa-hydrocyclopenta[c] pyrrol-5-ol]
– | 12800 | CC(C(O)c1ccc(O)cc1)N1C[C@@H]2C[C@](F)(Cc3ccccc3)C[C@@H]2C1 (mixture of isomers) [Example 318, rac-4-(2-((3aR,5s,6aS)-5-benzyl-5-fluoro-hexahydrocyclopen-ta[c]pyrrol-2(1H)-yl)-1-hydroxypropyl)phenol]
– | 566 | Cc1cc(C)cc(C[C@]2(O)C[C@H]3CN(CC(O)c4ccc(O)cc4)C[C@H]3C2)c1 (mixture of isomers) [Example 213, rac-(3aR,5R,6aS)-5-[(3,5-dimethylphenyl)methyl]-2-[2-hydroxy-2-(4-hydroxyphenyl)ethyl]-octahydrocyclopenta[c] pyrrol-5-ol]
– | 84.8 | Oc1ccc(C(O)CN2C[C@@H]3C[C@@](O)(Cc4ccc(C(F)(F)F)cc4)C[C@@H]3C2)cc1 (mixture of isomers) [Example 224, rac-(3aR,5R,6aS)-2-[2-hydroxy-2-(4-hydroxyphenyl)ethyl]-5-{[4-(trifluoromethyl)phenyl]methyl}-octahydrocyclopenta[c] pyrrol-5-ol]

Second part, the compound before the results:

Structure (SMILES) | IC50 [1] [nM] | IC50 [2] [nM]
OC(CN1C[C@@H]2C[C@@](O)(Cc3ccccc3)C[C@@H]2C1)c1ccc2[nH]nnc2c1 (mixture of isomers) [Example 186, rac-(3aR,5R,6aS)-2-[2-(1H-1,2,3-benzotriazol-5-yl)-2-hydroxyethyl]-5-benzyl-octahydrocyclopenta[c] pyrrol-5-ol] | 100 to 1000 | 748
COc1ccc(NC(=O)N2C[C@@H]3C[C@@](O)(c4cccc(OC)c4)C[C@@H]3C2)cc1 [Example 17, 5-hydroxy-5-(3-methoxyphenyl)-N-(4-methoxyphenyl)-octahydrocyclopenta[c] pyrrole-2-carboxamide] | > 10000 | –
Oc1cnc(C(O)CN2C[C@@H]3C[C@@](O)(Cc4ccccc4)C[C@@H]3C2)cn1 (mixture of isomers) [Example 188, rac-(3aR,5r,6aS)-5-benzyl-2-(2-hydroxy-2-(5-hydroxypyrazin-2-yl)ethyl)octahydrocyclo-penta[c]pyrrol-5-ol] | > 10000 | ≥ 10000
C[C@@H](NC(=O)N1C[C@@H]2C[C@@](O)(c3ccccc3)C[C@@H]2C1)c1ccc(Cl)cc1 [Example 20, N-[(1R)-1-(4-chlorophenyl)ethyl]-5-hydroxy-5-phenyl-octahydrocyclopenta[c] pyrrole-2-carboxamide] | > 10000 | –
Cc1ccccc1[C@]1(O)C[C@H]2CN(C(=O)Nc3cccc(Cl)c3)C[C@H]2C1 [Example 11] | > 10000 | –
COc1ccc(NC(=O)N2C[C@@H]3C[C@@](O)(c4ccccc4C)C[C@@H]3C2)cc1 [Example 8] | > 10000 | ≥ 10000
O=c1ccc(C(O)CN2C[C@@H]3C[C@@](O)(Cc4ccccc4)C[C@@H]3C2)n[nH]1 (mixture of isomers) [Example 158, rac-6-(2-((3aR,5r,6aS)-5-benzyl-5-hydroxyhexahydrocyclo-penta[c]pyrrol-2(1H)-yl)-1-hydroxyethyl)pyridazin-3(2H)-one] | > 10000 | ≥ 10000
CC(=O)Nc1ccc(C(O)CN2C[C@@H]3C[C@@](O)(Cc4ccccc4)C[C@@H]3C2)cc1 (mixture of isomers) [Example 149, rac-N-(4-(2-((3aR,5r,6aS)-5-benzyl-5-hydroxyhexahydrocyclo-penta[c]pyrrol-2(1H)-yl)-1-hydroxyethyl)phenyl)acet-amide] | – | 2310
Oc1ccc(C(O)CN2C[C@@H]3C[C@@](O)(c4ccccc4)C[C@@H]3C2)cc1 (mixture of isomers) [Example 67, rac-2-[2-hydroxy-2-(4-hydroxyphenyl)ethyl]-5-phenyl-octahydrocyclopenta[c] pyrrol-5-ol] | > 10000 | ≥ 10000
CC(C(=O)c1ccc(O)cc1)N1C[C@@H]2C[C@@](O)(c3ccc(C(C)(C)C)cc3)C[C@@H]2C1 (mixture of isomers) [Example 93, rac-2-[5-(4-tert-butylphenyl)-5-hydroxy-octahydrocyclopenta[c]pyrrol-2-yl]-1-(4-hydroxyphenyl)propan-1-one] | > 10000 | ≥ 10000
Oc1ccc(C(O)CN2C[C@@H]3C[C@@](O)(Cc4cccs4)C[C@@H]3C2)cc1 (mixture of isomers) [Example 204, rac-(3aR,5r,6aS)-2-(2-hydroxy-2-(4-hydroxyphenyl)ethyl)-5-(thiophen-2-ylmethyl)octahydrocyclo-penta[c]pyrrol-5-ol] | – | 12.6
CC(C)(C)c1ccc([C@]2(O)C[C@H]3CN(CC(O)c4cccc(C(F)(F)F)c4)C[C@H]3C2)cc1 (mixture of isomers) [Example 70, rac-5-(4-(tert-butyl)phenyl)-2-(2-hydroxy-2-(3-(trifluoromethyl)phenyl)ethyl)octahydrocyclo-penta[c]pyrrol-5-ol] | > 10000 | ≥ 10000
CO[C@@]1(Cc2ccccc2)C[C@H]2CN(CC(O)c3ccc(O)cc3)C[C@H]2C1 (mixture of isomers) [Example 176, rac-4-(2-((3aR,5r,6aS)-5-benzyl-5-methoxyhexahydrocyclo-penta[c]pyrrol-2(1H)-yl)-1-hydroxyethyl)phenol] | – | 32.4
Cc1ccccc1[C@]1(O)C[C@H]2CN(C(=O)Nc3cccc(C#N)c3)C[C@H]2C1 [Example 31, N-(3-cyanophenyl)-5-hydroxy-5-(2-methylphenyl)-octahydrocyclopenta[c] pyrrole-2-carboxamide] | > 10000 | –
COc1cccc([C@]2(O)C[C@H]3CN(CC(O)c4cccc(C(F)(F)F)c4)C[C@H]3C2)c1 (mixture of isomers) [Example 73, rac-2-{2-hydroxy-2-[3-(trifluoromethyl)phenyl]ethyl}-5-(3-methoxyphenyl)-octahydrocyclopenta[c] pyrrol-5-ol] | > 10000 | ≥ 10000
CC(C)(O)c1ccc(C(O)CN2C[C@@H]3C[C@@](O)(Cc4ccccc4)C[C@@H]3C2)cc1 (mixture of isomers) [Example 139, rac-(3aR,5r,6aS)-5-benzyl-2-(2-hydroxy-2-(4-(2-hydroxypropan-2-yl)phenyl)ethyl)octahydro-cyclopenta[c]pyrrol-5-ol] | > 10000 | ≥ 10000
Cc1ccc(C[C@]2(O)C[C@H]3CN(CC(O)c4ccc(O)cc4)C[C@H]3C2)cc1 (mixture of isomers) [Example 182, rac-(3aR,5R,6aS)-2-[2-hydroxy-2-(4-hydroxyphenyl)ethyl]-5-[(4-methylphenyl)methyl]-octahydrocyclopenta[c] pyrrol-5-ol] | – | 41.5
O=C(Nc1cccc(Cl)c1)N1C[C@@H]2C[C@@](O)(c3ccc(F)cc3)C[C@@H]2C1 [Example 39] | > 10000 | ≥ 10000
COc1cccc(C[C@]2(O)C[C@H]3CN(CC(O)c4ccc(O)cn4)C[C@H]3C2)c1 (mixture of isomers) [Example 196, rac-((3aR,r,6aS)-2-(2-hydroxy-2-(5-hydroxypyridin-2-yl)ethyl)-5-(3-meth-oxybenzyl)octahydro-cyclopenta[c]pyrrol-5-ol] | – | 66
